Measured values from ChEMBL document CHEMBL3885861, “Open TG-GATES”.

Species: Rattus norvegicus
Assay: Open TG-GATES - Regimen: Single
Type: toxicity, organism-based, Sprague-Dawley
Design: regimen Single, gender Male, age 6 weeks
Conditions: in vivo, po, route gavage; for APTT / Bas / Eos / Fbg / Hb / Ht / Lym / MCH / MCHC / MCV / Mono / Neu / PT / Plat / RBC / Ret / WBC: tissue Blood; for KIDNEY_L / KIDNEY_R / KIDNEY_TOTAL: tissue Kidney; for LIVER: tissue Liver; for A/G / ALP / ALT / AST / BUN / CRE / Ca / Cl / DBIL / GLC / IP / K / LDH / Na / PL / RALB / TBIL / TC / TG / TP / gamma-GTP: tissue Plasma
[1] = 100 mg/kg, 3 h, dose level Middle
[2] = 100 mg/kg, 6 h, dose level Middle
[3] = 100 mg/kg, 9 h, dose level Middle
[4] = 100 mg/kg, 24 h, dose level Middle
[5] = 300 mg/kg, 3 h, dose level High
[6] = 300 mg/kg, 6 h, dose level High
[7] = 300 mg/kg, 9 h, dose level High
[8] = 300 mg/kg, 24 h, dose level High

## CC[C@H]1[C@@H]2C[C@H]3[C@@H]4N(C)c5ccccc5[C@]45C[C@@H]([C@@H]2[C@H]5O)N3[C@@H]1O [AJMALINE]
[1]
  TERMINAL_BW: 195.2 g
  APTT: 16.3 s
  Bas: 0%
  Eos: 0.6%
  Fbg: 201.2 mg/dL
  Hb: 13.1 g/dL
  Ht: 40.1%
  Lym: 80.2%
  MCH: 21.8 pg
  MCHC: 32.7%
  MCV: 66.7 fL
  Mono: 6.8%
  Neu: 12.4%
  PT: 11.8 s
  Plat: 115.9 x10_4/uL
  RBC: 602.8 x10_4/ul
  Ret: 12.1%
  WBC: 109.1 x10_2/uL
  KIDNEY_L: 0.9 g
  KIDNEY_R: 0.9 g
  KIDNEY_TOTAL: 1.8 g
  LIVER: 9.6 g
  A/G: 2.4
  ALP: 824.8 IU/L
  ALT: 33.4 IU/L
  AST: 64.6 IU/L
  BUN: 11.6 mg/dL
  CRE: 0.4 mg/dL
  Ca: 11.1 mg/dL
  Cl: 103 meq/L
  DBIL: 0.052 mg/dL
  GLC: 198.4 mg/dL
  IP: 9.1 mg/dL
  K: 4.5 meq/L
  LDH: 128 IU/L
  Na: 138.2 meq/L
  PL: 140.4 mg/dL
  RALB: 3.6 g/dL
  TBIL: 0.4 mg/dL
  TC: 75 mg/dL
  TG: 65.6 mg/dL
  TP: 5.2 g/dL
  gamma-GTP: 1.6 IU/L
[2]
  TERMINAL_BW: 187.8 g
  APTT: 17 s
  Bas: 0%
  Eos: 0.6%
  Fbg: 193.4 mg/dL
  Hb: 12.9 g/dL
  Ht: 39%
  Lym: 84.2%
  MCH: 21.8 pg
  MCHC: 33.1%
  MCV: 66 fL
  Mono: 5.8%
  Neu: 9%
  PT: 12.1 s
  Plat: 109.9 x10_4/uL
  RBC: 591.4 x10_4/ul
  Ret: 11.2%
  WBC: 76.5 x10_2/uL
  KIDNEY_L: 0.9 g
  KIDNEY_R: 0.9 g
  KIDNEY_TOTAL: 1.8 g
  LIVER: 8.5 g
  A/G: 2.2
  ALP: 849 IU/L
  ALT: 31.6 IU/L
  AST: 67.8 IU/L
  BUN: 9 mg/dL
  CRE: 0.5 mg/dL
  Ca: 11 mg/dL
  Cl: 102.6 meq/L
  DBIL: 0.044 mg/dL
  GLC: 191 mg/dL
  IP: 9.9 mg/dL
  K: 4.6 meq/L
  LDH: 99.2 IU/L
  Na: 138.4 meq/L
  PL: 140.2 mg/dL
  RALB: 3.5 g/dL
  TBIL: 0.4 mg/dL
  TC: 83.6 mg/dL
  TG: 60.4 mg/dL
  TP: 5.2 g/dL
  gamma-GTP: 1 IU/L
[3]
  TERMINAL_BW: 191.7 g
  APTT: 16.7 s
  Bas: 0%
  Eos: 1.2%
  Fbg: 206 mg/dL
  Hb: 12.9 g/dL
  Ht: 39.2%
  Lym: 75%
  MCH: 21.6 pg
  MCHC: 32.8%
  MCV: 65.6 fL
  Mono: 7.8%
  Neu: 16.2%
  PT: 11.9 s
  Plat: 115.9 x10_4/uL
  RBC: 597 x10_4/ul
  Ret: 9.5%
  WBC: 88.2 x10_2/uL
  KIDNEY_L: 0.9 g
  KIDNEY_R: 1 g
  KIDNEY_TOTAL: 1.9 g
  LIVER: 8.1 g
  A/G: 2.6
  ALP: 786.2 IU/L
  ALT: 33 IU/L
  AST: 67.2 IU/L
  BUN: 11 mg/dL
  CRE: 0.5 mg/dL
  Ca: 10.3 mg/dL
  Cl: 104.6 meq/L
  DBIL: 0.066 mg/dL
  GLC: 190.6 mg/dL
  IP: 10.6 mg/dL
  K: 4.8 meq/L
  LDH: 107 IU/L
  Na: 138 meq/L
  PL: 138 mg/dL
  RALB: 3.7 g/dL
  TBIL: 0.3 mg/dL
  TC: 79.8 mg/dL
  TG: 46 mg/dL
  TP: 5.2 g/dL
  gamma-GTP: 0.2 IU/L
[4]
  TERMINAL_BW: 205.6 g
  APTT: 16.3 s
  Bas: 0%
  Eos: 1%
  Fbg: 205.6 mg/dL
  Hb: 12.7 g/dL
  Ht: 38.5%
  Lym: 81.2%
  MCH: 21.8 pg
  MCHC: 33.1%
  MCV: 65.9 fL
  Mono: 5.8%
  Neu: 12.4%
  PT: 11.6 s
  Plat: 106.5 x10_4/uL
  RBC: 585.2 x10_4/ul
  Ret: 11.1%
  WBC: 105.9 x10_2/uL
  KIDNEY_L: 1 g
  KIDNEY_R: 1 g
  KIDNEY_TOTAL: 2 g
  LIVER: 10.2 g
  A/G: 2.2
  ALP: 869.2 IU/L
  ALT: 39.4 IU/L
  AST: 67.2 IU/L
  BUN: 17.4 mg/dL
  CRE: 0.6 mg/dL
  Ca: 10.9 mg/dL
  Cl: 102.2 meq/L
  DBIL: 0.03 mg/dL
  GLC: 204.2 mg/dL
  IP: 8.4 mg/dL
  K: 4.5 meq/L
  LDH: 105.2 IU/L
  Na: 139.8 meq/L
  PL: 142.6 mg/dL
  RALB: 3.7 g/dL
  TBIL: 0.4 mg/dL
  TC: 79.4 mg/dL
  TG: 81.6 mg/dL
  TP: 5.4 g/dL
  gamma-GTP: 0.8 IU/L
[5]
  TERMINAL_BW: 194.9 g
  APTT: 17 s
  Bas: 0%
  Eos: 0.6%
  Fbg: 201.8 mg/dL
  Hb: 13 g/dL
  Ht: 39.5%
  Lym: 80.6%
  MCH: 21.3 pg
  MCHC: 32.8%
  MCV: 64.8 fL
  Mono: 6.4%
  Neu: 12.6%
  PT: 11.9 s
  Plat: 106.2 x10_4/uL
  RBC: 611.2 x10_4/ul
  Ret: 11.5%
  WBC: 94.5 x10_2/uL
  KIDNEY_L: 0.9 g
  KIDNEY_R: 0.9 g
  KIDNEY_TOTAL: 1.9 g
  LIVER: 9.2 g
  A/G: 2.3
  ALP: 955.4 IU/L
  ALT: 34 IU/L
  AST: 64.6 IU/L
  BUN: 13.2 mg/dL
  CRE: 0.4 mg/dL
  Ca: 10.6 mg/dL
  Cl: 103.6 meq/L
  DBIL: 0.018 mg/dL
  GLC: 184.6 mg/dL
  IP: 8.9 mg/dL
  K: 4.4 meq/L
  LDH: 108.4 IU/L
  Na: 137.8 meq/L
  PL: 135 mg/dL
  RALB: 3.7 g/dL
  TBIL: 0.4 mg/dL
  TC: 71.4 mg/dL
  TG: 57.8 mg/dL
  TP: 5.3 g/dL
  gamma-GTP: 1 IU/L
[6]
  TERMINAL_BW: 195.8 g
  APTT: 17.3 s
  Bas: 0%
  Eos: 1.2%
  Fbg: 211.8 mg/dL
  Hb: 13.1 g/dL
  Ht: 40%
  Lym: 69.2%
  MCH: 21.6 pg
  MCHC: 32.7%
  MCV: 66 fL
  Mono: 8.8%
  Neu: 20.6%
  PT: 11.8 s
  Plat: 109.7 x10_4/uL
  RBC: 607 x10_4/ul
  Ret: 11.3%
  WBC: 82.2 x10_2/uL
  KIDNEY_L: 0.9 g
  KIDNEY_R: 1 g
  KIDNEY_TOTAL: 1.9 g
  LIVER: 9 g
  A/G: 2.1
  ALP: 795 IU/L
  ALT: 32.2 IU/L
  AST: 64.6 IU/L
  BUN: 10.4 mg/dL
  CRE: 0.5 mg/dL
  Ca: 10.8 mg/dL
  Cl: 102.6 meq/L
  DBIL: 0.062 mg/dL
  GLC: 184.6 mg/dL
  IP: 9.2 mg/dL
  K: 4.6 meq/L
  LDH: 93.2 IU/L
  Na: 137.2 meq/L
  PL: 142.6 mg/dL
  RALB: 3.7 g/dL
  TBIL: 0.4 mg/dL
  TC: 77.8 mg/dL
  TG: 40.2 mg/dL
  TP: 5.4 g/dL
  gamma-GTP: 1.8 IU/L
[7]
  TERMINAL_BW: 189 g
  APTT: 16.4 s
  Bas: 0%
  Eos: 1.4%
  Fbg: 215.8 mg/dL
  Hb: 13.2 g/dL
  Ht: 40.1%
  Lym: 72.8%
  MCH: 21.2 pg
  MCHC: 32.9%
  MCV: 64.4 fL
  Mono: 8%
  Neu: 18.4%
  PT: 11.9 s
  Plat: 117.8 x10_4/uL
  RBC: 623.8 x10_4/ul
  Ret: 11.7%
  WBC: 70.8 x10_2/uL
  KIDNEY_L: 0.9 g
  KIDNEY_R: 0.9 g
  KIDNEY_TOTAL: 1.7 g
  LIVER: 8.5 g
  A/G: 2.3
  ALP: 780.6 IU/L
  ALT: 31 IU/L
  AST: 62.8 IU/L
  BUN: 13.2 mg/dL
  CRE: 0.6 mg/dL
  Ca: 10.5 mg/dL
  Cl: 103.6 meq/L
  DBIL: 0.078 mg/dL
  GLC: 178 mg/dL
  IP: 10.1 mg/dL
  K: 5 meq/L
  LDH: 113.8 IU/L
  Na: 138.4 meq/L
  PL: 146.4 mg/dL
  RALB: 3.8 g/dL
  TBIL: 0.4 mg/dL
  TC: 87.8 mg/dL
  TG: 50 mg/dL
  TP: 5.4 g/dL
  gamma-GTP: 1 IU/L
[8]
  TERMINAL_BW: 206.4 g
  APTT: 16 s
  Bas: 0%
  Eos: 1%
  Fbg: 199.4 mg/dL
  Hb: 13 g/dL
  Ht: 39.3%
  Lym: 79.8%
  MCH: 21.6 pg
  MCHC: 33%
  MCV: 65.5 fL
  Mono: 6.8%
  Neu: 12.6%
  PT: 11.8 s
  Plat: 108 x10_4/uL
  RBC: 599.6 x10_4/ul
  Ret: 9.9%
  WBC: 77.5 x10_2/uL
  KIDNEY_L: 1 g
  KIDNEY_R: 1 g
  KIDNEY_TOTAL: 1.9 g
  LIVER: 9.9 g
  A/G: 2.2
  ALP: 860.6 IU/L
  ALT: 37.4 IU/L
  AST: 69 IU/L
  BUN: 18 mg/dL
  CRE: 0.6 mg/dL
  Ca: 11 mg/dL
  Cl: 101.4 meq/L
  DBIL: 0.03 mg/dL
  GLC: 196.4 mg/dL
  IP: 9.1 mg/dL
  K: 4.6 meq/L
  LDH: 109.4 IU/L
  Na: 139.4 meq/L
  PL: 149.4 mg/dL
  RALB: 3.7 g/dL
  TBIL: 0.4 mg/dL
  TC: 83.8 mg/dL
  TG: 99 mg/dL
  TP: 5.3 g/dL
  gamma-GTP: 0.8 IU/L
